Measured values published in patent publication US9149475B2, “Protein kinase C inhibitors and uses thereof” (Rigel Pharmaceuticals, Inc., priority 2009, dated 2015).

Tested on: Human primary T cells
Assay: IL-2 ELISA, human primary T cell, anti-CD3+CD28+ (whole cell assay)
Format: cell-based
Conditions: human primary T cells stimulated with anti-CD3 + anti-CD28, 24 hours
Procedure, shortened: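 IL-2 secreted over 24 h at 37° C was quantified by ELISA after plate-bound αCD3 (1 μg/ml) and αCD28 (5 μg/ml) stimulation, or PMA (0.5 ng/ml) with ionomycin (0.1 μM) as counter-screen. Cells were IL-2-starved primary human T cells, expanded from volunteer PBMC and exposed to compound for 1 hr beforehand.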

| SMILES | IC50 | IC50 (Homo sapiens, T-cell, 24 h) |
| --- | --- | --- |
| CCOc1ccc(Nc2ncc(C(N)=O)c(NC3CC(C)(C)NC(C)(C)C3)n2)cc1-n1nnnc1CC [Compound I-68, 5-aminocarbonyl-N2-[4-ethoxy-3-(5-ethyl-1H-tetrazol-1-yl)]phenyl-N4-(2,2,6,6-tetramethylpiperidin-4-yl)-2,4-pyrimidinediamine] | > 1000 nM |  |
| CN1C(C)(C)CC(Nc2nc(Nc3cccc(-n4nnnc4SCC(F)(F)F)c3)ncc2F)CC1(C)C [Compound I-69, 5-fluoro-N4-(1,2,2,6,6-pentamethylpiperidin-4-yl)-N2-{3-[5-(2,2,2-trifluoroethyl)thio]-1H-tetrazol-1-yl}phenyl-2,4-pyrimidinediamine] | < 250 nM |  |
| CC1(C)CC(Nc2nc(Nc3cccc(-n4nnnc4SCC(F)(F)F)c3)ncc2F)CC(C)(C)N1 [Compound I-70, 5-fluoro-N4-(2,2,6,6-tetramethylpiperidin-4-yl)-N2-{3-[5-(2,2,2-trifluoroethyl)thio]-1H-tetrazol-1-yl}phenyl-2,4-pyrimidinediamine] | < 250 nM |  |
| CN1C(C)(C)CC(Nc2nc(Nc3cccc(-n4nnnc4SCC(F)(F)F)c3)ncc2C(N)=O)CC1(C)C [Compound I-71, 5-aminocarbonyl-N4-(1,2,2,6,6-pentamethylpiperidin-4-yl)-N2-{3-[5-(2,2,2-trifluoroethyl)thio]-1H-tetrazol-1-yl}phenyl-2,4-pyrimidinediamine] | 250 to 500 nM |  |
| CC1(C)CC(Nc2nc(Nc3cccc(-n4nnnc4SCC(F)(F)F)c3)ncc2C(N)=O)CC(C)(C)N1 [Compound I-72, 5-aminocarbonyl-N4-(2,2,6,6-tetramethylpiperidin-4-yl)-N2-{3-[5-(2,2,2-trifluoroethyl)thio]-1H-tetrazol-1-yl}phenyl-2,4-pyrimidinediamine] | > 1000 nM |  |
| CCCc1nnnn1-c1cc(Nc2ncc(C(N)=O)c(NC3CC(C)(C)N(C)C(C)(C)C3)n2)ccc1OC [Compound I-75, 5-aminocarbonyl-N2-[4-methoxy-3-(5-propyl-1H-tetrazol-1-yl)]phenyl-N4-(1,2,2,6,6-pentamethylpiperidin-4-yl)-2,4-pyrimidinediamine] | 500 to 1000 nM |  |
| CCCc1nnnn1-c1cc(Nc2ncc(C(N)=O)c(NC3CC(C)(C)NC(C)(C)C3)n2)ccc1OC [Compound I-76, 5-aminocarbonyl-N2-[4-methoxy-3-(5-propyl-1H-tetrazol-1-yl)]phenyl-N4-(2,2,6,6-tetramethylpiperidin-4-yl)-2,4-pyrimidinediamine] | > 1000 nM |  |
| CN1C(C)(C)CC(Nc2nc(Nc3cccc(-n4nnnc4SCC(F)(F)F)c3)ncc2C#N)CC1(C)C [Compound I-78, 5-cyano-N4-(1,2,2,6,6-pentamethylpiperidin-4-yl)-N2-{3-[5-(2,2,2-trifluoroethyl)thio]-1H-tetrazol-1-yl}phenyl-2,4-pyrimidinediamine] | < 250 nM |  |
| CCCc1nnnn1-c1cc(Nc2ncc(C#N)c(NC3CC(C)(C)N(C)C(C)(C)C3)n2)ccc1OC [Compound I-80, 5-cyano-N2-[4-methoxy-3-(5-propyl-1H-tetrazol-1-yl)]phenyl-N4-(1,2,2,6,6-pentamethylpiperidin-4-yl)-2,4-pyrimidinediamine] | < 250 nM |  |
| CCc1nnnn1-c1cc(Nc2ncc(C(N)=O)c(NC3CC(C)(C)NC(C)(C)C3)n2)ccc1OC(F)F [Compound I-83, 5-aminocarbonyl-N2-[4-difluoromethoxy-3-(5-ethyl-1H-tetrazol-1-yl)]phenyl-N4-(2,2,6,6-tetramethylpiperidin-4-yl)-2,4-pyrimidinediamine] | > 1000 nM |  |
| CC(C)n1nnnc1-c1cccc(Nc2ncc(C#N)c(NC3CC(C)(C)N(C)C(C)(C)C3)n2)c1 [Compound I-88, 5-Cyano-N2-{3-[1-N-isopropyl-(tetrazol-5-yl)]}phenyl-N4-(1,2,2,6,6-pentamethylpiperidin-4-yl)-2,4-pyrimidinediamine] | < 250 nM |  |
| COc1ccc(Nc2ncc(F)c(NC3CC(C)(C)NC(C)(C)C3)n2)cc1-n1c(C)ccc1C [Compound I-93, N2-[3-(2,5-Dimethyl-pyrrol-1-yl)-4-methoxy]phenyl-5-fluoro-N4-(2,2,6,6-tetramethylpiperidin-4-yl)-2,4-pyrimidinediamine] | < 250 nM |  |
| CN1C(C)(C)CC(Nc2nc(Nc3cccc(-c4nnnn4C4CC4)c3)ncc2C#N)CC1(C)C [Compound I-94, 5-Cyano-N2-{3-[1-N-cyclopropyl-(tetrazol-5-yl)]}phenyl-N4-(1,2,2,6,6-pentamethylpiperidin-4-yl)-2,4-pyrimidinediamine] | < 250 nM |  |
| CN1C(C)(C)CC(Nc2nc(Nc3cccc(-c4nnnn4CCF)c3)ncc2C#N)CC1(C)C [Compound I-96, 5-Cyano-N2-{3-[1-N-(2-fluoroethyl)-(tetrazol-5-yl)]}phenyl-N4-(1,2,2,6,6-pentamethylpiperidin-4-yl)-2,4-pyrimidinediamine] | < 250 nM |  |
| Cc1ccc(C)n1-c1cc(Nc2ncc(F)c(NC3CC(C)(C)N(C)C(C)(C)C3)n2)ccc1F [Compound I-100, N2-[3-(2,5-Dimethyl-pyrrol-1-yl)-4-fluoro]phenyl-5-fluoro-N4-(1,2,2,6,6-pentamethylpiperidin-4-yl)-2,4-pyrimidinediamine] | < 250 nM |  |
| Cc1ccc(C)n1-c1cc(Nc2ncc(F)c(NC3CC(C)(C)N(C)C(C)(C)C3)n2)ccc1C#N [Compound I-102, N2-[4-Cyano-3-(2,5-dimethyl-pyrrol-1-yl)]phenyl-5-fluoro-N4-(1,2,2,6,6-pentamethylpiperidin-4-yl)-2,4-pyrimidinediamine] | 250 to 500 nM |  |
| Cc1ccc(C)n1-c1cc(Nc2ncc(F)c(NC3CC(C)(C)N(C)C(C)(C)C3)n2)ccc1OC(=O)NC(C)C [Compound I-103, N2-[3-(2,5-Dimethyl-pyrrol-1-yl)-4-(isopropylaminocarboxyloxy)]phenyl-5-fluoro-N4-(1,2,2,6,6-pentamethylpiperidin-4-yl)-2,4-pyrimidinediamine] | 500 to 1000 nM |  |
| CC(C)N1CCC(Oc2ccc(Nc3ncc(F)c(NC4CC(C)(C)NC(C)(C)C4)n3)cc2OC(F)F)CC1 [Compound I-104, N2-(4-(1-isopropylpiperidin-4-yloxy)-3-(difluoromethoxy)phenyl)-5-fluoro-N4-(2,2,6,6-tetramethylpiperidin-4-yl)pyrimidine-2,4-diamine] |  | < 250 nM |
| CC(C)N1CCC(Oc2ccc(Nc3ncc(F)c(NC4CC(C)(C)N(C)C(C)(C)C4)n3)cc2OC(F)F)CC1 [Compound I-105, N2-(4-(1-isopropylpiperidin-4-yloxy)-3-(difluoromethoxy)phenyl)-5-fluoro-N4-(1,2,2,6,6-pentamethylpiperidin-4-yl)pyrimidine-2,4-diamine] |  | < 250 nM |
| CC1(C)CC(Nc2nc(Nc3cc(OC(F)F)cc(C(F)(F)F)c3)ncc2F)CC(C)(C)N1 [Compound I-106, N2-(3-(difluoromethoxy)-5-(trifluoromethyl)phenyl)-5-fluoro-N4-(2,2,6,6-tetramethylpiperidin-4-yl)pyrimidine-2,4-diamine] |  | 500 to 1000 nM |

Continued, values first:

| IC50 | IC50 (Homo sapiens, T-cell, 24 h) | SMILES |
| --- | --- | --- |
| < 250 nM |  | CN1C(C)(C)CC(Nc2nc(Nc3ccc(F)c(-n4cnnn4)c3)ncc2C#N)CC1(C)C [Compound I-73, 5-cyano-N2-[4-fluoro-3-(1H-tetrazol-1-yl)]phenyl-N4-(1,2,2,6,6-pentamethylpiperidin-4-yl)-2,4-pyrimidinediamine] |
| < 250 nM |  | CCCc1nnnn1-c1cc(Nc2ncc(F)c(NC3CC(C)(C)NC(C)(C)C3)n2)ccc1OC [Compound I-74, 5-fluoro-N2-[4-methoxy-3-(5-propyl-1H-tetrazol-1-yl)]phenyl-N4-(2,2,6,6-tetramethylpiperidin-4-yl)-2,4-pyrimidinediamine] |
| 250 to 500 nM |  | CC1(C)CC(Nc2nc(Nc3ccc(F)c(-n4cnnn4)c3)ncc2C#N)CC(C)(C)N1 [Compound I-77, 5-cyano-N2-[4-fluoro-3-(1H-tetrazol-1-yl)]phenyl-N4-(2,2,6,6-tetramethylpiperidin-4-yl)-2,4-pyrimidinediamine] |
| < 250 nM |  | CC1(C)CC(Nc2nc(Nc3cccc(-n4nnnc4SCC(F)(F)F)c3)ncc2C#N)CC(C)(C)N1 [Compound I-79, 5-cyano-N4-(2,2,6,6-tetramethylpiperidin-4-yl)-N2-{3-[5-(2,2,2-trifluoroethyl)thio]-1H-tetrazol-1-yl}phenyl-2,4-pyrimidinediamine] |
| 250 to 500 nM |  | CCCc1nnnn1-c1cc(Nc2ncc(C#N)c(NC3CC(C)(C)NC(C)(C)C3)n2)ccc1OC [Compound I-81, 5-cyano-N2-[4-methoxy-3-(5-propyl-1H-tetrazol-1-yl)]phenyl-N4-(2,2,6,6-tetramethylpiperidin-4-yl)-2,4-pyrimidinediamine] |
| > 1000 nM |  | CCc1nnnn1-c1cc(Nc2ncc(C#N)c(NC3CC(C)(C)NC(C)(C)C3)n2)ccc1OC(F)F [Compound I-84, 5-cyano-N2-[4-difluoromethoxy-3-(5-ethyl-1H-tetrazol-1-yl)]phenyl-N4-(2,2,6,6-tetramethylpiperidin-4-yl)-2,4-pyrimidinediamine] |
| > 1000 nM |  | CC1(C)CC(Nc2nc(Nc3cccc(-c4nnn[nH]4)c3)ncc2C#N)CC(C)(C)N1 [Compound I-85, 5-Cyano-N4-(2,2,6,6-tetramethylpiperidin-4-yl)-N2-[3-(tetrazol-5-yl)]phenyl-2,4-pyrimidinediamine] |
| 250 to 500 nM |  | CC1(C)CC(Nc2nc(Nc3cccc(-c4nnnn4C4CC4)c3)ncc2C#N)CC(C)(C)N1 [Compound I-95, 5-Cyano-N2-{3-[1-N-cyclopropyl-(tetrazol-5-yl)]}phenyl-N4-(2,2,6,6-tetramethylpiperidin-4-yl)-2,4-pyrimidinediamine] |
| > 1000 nM |  | CC1(C)CC(Nc2nc(Nc3cccc(-c4nnnn4CCF)c3)ncc2C#N)CC(C)(C)N1 [Compound I-97, 5-Cyano-N2-{3-[1-N-(2-fluoroethyl)-(tetrazol-5-yl)]}phenyl-N4-(2,2,6,6-tetramethylpiperidin-4-yl)-2,4-pyrimidinediamine] |
| 250 to 500 nM |  | Cc1ccc(C)n1-c1cc(Nc2ncc(F)c(NC3CC(C)(C)NC(C)(C)C3)n2)ccc1F [Compound I-101, N2-[3-(2,5-Dimethyl-pyrrol-1-yl)-4-fluoro]phenyl-5-fluoro-N4-(2,2,6,6-tetramethylpiperidin-4-yl)-2,4-pyrimidinediamine] |
